In patent US8283299B2, “Skin and hand cleaning compositions with hydrophilic emollients” (Evonik Stockhausen GmbH, priority 2007, dated 2012):

Tests used:
[1] = cited from earlier work
[2] = Determination of the HLB value; format: physicochemical; conditions: 5% strength dispersion/solution in water, visual comparison with emulsifiers of known HLB
Method: The HLB value is determined by preparing a 5% strength dispersion/solution of the substance to be tested, here the hydrophilic emollient, in water, and determining the solubility in water. The assessment takes place visually: clouding, solubility, degree of dispersion. The HLB value is ascertained through comparison with solutions of emulsifiers whose HLB value is known.

Row | Substance | HLB value according to manufacturer [1] | HLB value (ascertained) [2]
1 | PEG-7 glyceryl cocoate [Glycerox HE] | HLB: 11 | 
2 | polyglyceryl-3 caprate [TEGOSOFT PC 31] |  | HLB: 14
3 | polyglyceryl-4 caprate [TEGOSOFT PC 41] |  | HLB: 16
